Reference: ChEMBL document CHEMBL1201862, “PubChem BioAssay data set” (2004)
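Where inhibition never reached the appropriate level, the endpoint shown equals the highest concentration tested. Otherwise, values were interpolated linearly from a five-concentration, 48-hour dose response in 96-well plates. GI50 marks 50% less growth.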 Activity calls are given as the source filed them. Cut-off read from the data, not from the text of the source: active = GI50 up to about 1.1 µM and inactive = higher.

Columns and labels:
Test in all cases: NCI anticancer screen, dose series, 48 h
K562 = system: K562
HOP-62 = system: HOP-62
IGROV-1 = system: IGROV-1
KM-20L2 = system: KM-20L2
OVCAR-5 = system: OVCAR-5
EKVX = system: EKVX
A498 = system: A498
SN12C = system: SN12C
SK-MEL-2 = system: SK-MEL-2
KM12 = system: KM12
OVCAR-4 = system: OVCAR-4
SNB-78 = system: SNB-78
M19-MEL = system: M19-MEL
786-0 = system: 786-0
M14 = system: M14
NCI-H226 = system: NCI-H226
ACHN = system: ACHN
HCT-15 = system: HCT-15
HCC 2998 = system: HCC 2998
TK-10 = system: TK-10
OVCAR-3 = system: OVCAR-3
HL-60 = system: HL-60
NCI-H23 = system: NCI-H23
SK-MEL-5 = system: SK-MEL-5
CAKI-1 = system: CAKI-1
HT-29 = system: HT-29
RXF 393 = system: RXF 393
U-251 = system: U-251
SNB-19 = system: SNB-19
OVCAR-8 = system: OVCAR-8
NCI-H522 = system: NCI-H522
RPMI-8226 = system: RPMI-8226
MOLT-4 = system: MOLT-4
SF-539 = system: SF-539
LOX IMVI = system: LOX IMVI
SW-620 = system: SW-620
DMS-114 = system: DMS-114
SK-MEL-28 = system: SK-MEL-28
HOP-92 = system: HOP-92
SF-268 = system: SF-268
UACC-62 = system: UACC-62
UACC-257 = system: UACC-257
SF-295 = system: SF-295
SR = system: SR
SNB-75 = system: SNB-75
NCI-H460 = system: NCI-H460
Malme-3M = system: Malme-3M
SK-OV-3 = system: SK-OV-3
UO-31 = system: UO-31
DMS-273 = system: DMS-273
HCT-116 = system: HCT-116
COLO 205 = system: COLO 205
A549 = system: A549
LXFL 529 = system: LXFL 529
CCRF-CEM = system: CCRF-CEM
DLD-1 = system: DLD-1

With `COC(=O)C1C2CC3C(OC(=O)C31)C2I` (stereo unspecified) the GI50 (K562) was > 100 µM (inactive), the GI50 (HOP-62) was > 100 µM (inactive) and the GI50 (IGROV-1) was > 100 µM (inactive). For the same compound, the GI50 (KM-20L2) was > 100 µM (inactive), the GI50 (OVCAR-5) was > 100 µM (inactive) and the GI50 (EKVX) was > 100 µM (inactive). The GI50 (A498) was > 100 µM (inactive), the GI50 (SN12C) was > 100 µM (inactive) and the GI50 (SK-MEL-2) was > 100 µM (inactive). The GI50 (KM12) was > 100 µM (inactive), the GI50 (OVCAR-4) was > 100 µM (inactive) and the GI50 (SNB-78) was > 100 µM (inactive). For the same compound, the GI50 (M19-MEL) was > 100 µM (inactive), the GI50 (786-0) was > 100 µM (inactive) and the GI50 (M14) was > 100 µM (inactive). The GI50 (NCI-H226) was > 100 µM (inactive), the GI50 (ACHN) was > 100 µM (inactive) and the GI50 (HCT-15) was > 100 µM. The GI50 (HCC 2998) was > 100 µM (inactive), the GI50 (TK-10) was > 10 µM (inactive) and the GI50 (OVCAR-3) was > 100 µM (inactive). For the same compound, the GI50 (HL-60) was > 100 µM (inactive), the GI50 (NCI-H23) was > 100 µM (inactive) and the GI50 (SK-MEL-5) was > 100 µM (inactive). The GI50 (CAKI-1) was > 100 µM (inactive), the GI50 (HT-29) was > 100 µM (inactive) and the GI50 (RXF 393) was > 10 µM (inactive). The GI50 (U-251) was > 100 µM (inactive), the GI50 (SNB-19) was > 100 µM (inactive) and the GI50 (OVCAR-8) was > 100 µM (inactive). For the same compound, the GI50 (NCI-H522) was > 100 µM (inactive), the GI50 (RPMI-8226) was > 100 µM (inactive) and the GI50 (MOLT-4) was > 100 µM (inactive). For the same compound, the GI50 (SF-539) was > 100 µM (inactive), the GI50 (LOX IMVI) was > 100 µM (inactive) and the GI50 (SW-620) was > 100 µM (inactive). For the same compound, the GI50 (DMS-114) was > 100 µM (inactive), the GI50 (SK-MEL-28) was > 10 µM (inactive) and the GI50 (HOP-92) was > 100 µM (inactive). For the same compound, the GI50 (SF-268) was > 100 µM (inactive), the GI50 (UACC-62) was > 100 µM (inactive) and the GI50 (UACC-257) was > 100 µM (inactive). The GI50 (SF-295) was > 100 µM (inactive), the GI50 (SR) was > 100 µM (inactive) and the GI50 (SNB-75) was > 100 µM (inactive). The GI50 (NCI-H460) was > 100 µM (inactive), the GI50 (Malme-3M) was > 100 µM (inactive) and the GI50 (SK-OV-3) was > 100 µM (inactive). The GI50 (UO-31) was > 100 µM (inactive), the GI50 (DMS-273) was > 100 µM (inactive) and the GI50 (HCT-116) was > 100 µM (inactive). The GI50 (COLO 205) was > 100 µM (inactive) and the GI50 (A549) was > 100 µM (inactive).

`C#Cc1cccc(NC(=O)/C=C\C(=O)O)c1` was tested, and the GI50 (K562) was > 100 µM (inactive), the GI50 (KM-20L2) was > 100 µM (inactive) and the GI50 (LXFL 529) was > 100 µM (inactive). For the same compound, the GI50 (OVCAR-5) was > 100 µM (inactive), the GI50 (EKVX) was > 100 µM (inactive) and the GI50 (A498) was > 100 µM (inactive). For the same compound, the GI50 (SN12C) was > 100 µM (inactive), the GI50 (SK-MEL-2) was > 100 µM (inactive) and the GI50 (KM12) was > 100 µM (inactive). The GI50 (OVCAR-4) was > 100 µM (inactive), the GI50 (SNB-78) was > 100 µM (inactive) and the GI50 (786-0) was > 100 µM (inactive). The GI50 (NCI-H226) was > 100 µM (inactive), the GI50 (ACHN) was > 100 µM (inactive) and the GI50 (TK-10) was > 100 µM (inactive). For the same compound, the GI50 (HL-60) was > 100 µM (inactive), the GI50 (NCI-H23) was > 100 µM (inactive) and the GI50 (SK-MEL-5) was > 100 µM (inactive). For the same compound, the GI50 (CAKI-1) was > 100 µM (inactive), the GI50 (HT-29) was > 100 µM (inactive) and the GI50 (U-251) was > 100 µM (inactive). The GI50 (SNB-19) was > 100 µM (inactive), the GI50 (OVCAR-8) was > 100 µM (inactive) and the GI50 (NCI-H522) was > 100 µM (inactive). The GI50 (CCRF-CEM) was > 100 µM (inactive), the GI50 (RPMI-8226) was > 100 µM (inactive) and the GI50 (MOLT-4) was > 100 µM (inactive). The GI50 (SW-620) was > 100 µM (inactive), the GI50 (SK-MEL-28) was > 100 µM (inactive) and the GI50 (HOP-92) was > 100 µM (inactive). For the same compound, the GI50 (SF-268) was > 100 µM (inactive), the GI50 (UACC-62) was > 100 µM (inactive) and the GI50 (DLD-1) was > 100 µM (inactive). For the same compound, the GI50 (UACC-257) was > 100 µM (inactive), the GI50 (SF-295) was > 100 µM (inactive) and the GI50 (SNB-75) was > 100 µM (inactive). The GI50 (NCI-H460) was > 100 µM (inactive), the GI50 (Malme-3M) was > 100 µM (inactive) and the GI50 (SK-OV-3) was > 100 µM (inactive). For the same compound, the GI50 (UO-31) was > 100 µM (inactive), the GI50 (HCT-116) was > 100 µM (inactive) and the GI50 (COLO 205) was > 100 µM (inactive). For the same compound, the GI50 (A549) was > 100 µM (inactive).
